Like-named read-outs stand apart in the source and are kept apart here.
Assays:
[1] = tested on: human small lung cancer cell line H2171; assay: Cell Viability Assay (ATPlite); format: cell-based; conditions: H2171 cells, three days, ATPlite, calculated IC50 class, read-out: H2171 Activity
Description: Compounds of the invention were assayed for cell viability using the human small lung cancer cell line H2171 as described in the following protocol. Cells were counted and adjusted to 20,000 cells/mL. Using a Biotek EL406, 50 μL of cells in media were distributed into 384 well white plates from Thermo. Immediately after plating, compound in DMSO was distributed to plates. Compounds were added to plates using a 50 nL 384 well pin transfer manifold on a Janus workstation. Stocks were arrayed in 10 point dose response in DMSO stock in 384 well Greiner compound plates. After the addition of compounds, plates were incubated for three days in a 37° C. incubator. Cell viability was read out using ATPlite from Perkin Elmer. Lyophilized powder was resuspended in lysis buffer and diluted 1:2 with deionized water. 25 μL of this solution was added to each well using the Biotek liquid handler. Plates were incubated for 15 minutes at room temperature before signal was read on an Envision Plate Reader. The data from this assay are summarized in Tables 2 and 3 below (H2171 activity).

c-Myc/Max/Ebox DNA = molecular target: T1, c-Myc/Max/Ebox DNA (Homo sapiens, UniProt P01106); assay: c-Myc/Max/Ebox DNA AlphaScreen Assay; format: binding; conditions: calculated IC50 class
T1 construct: his6 (cleaved yes)
Method in brief: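 Compounds were preincubated with free c-Myc (20 nM), biotinylated single-Ebox DNA (10 nM) and Ni acceptor beads before his6-Max (5 nM) and streptavidin donor beads were added. Buffer was 50 mM HEPES pH 8.0, 150 mM NaCl, BSA, Tween20, glycogen and DTT, with DMSO ≤2%. After 2 h incubation, AlphaScreen signal was read at 680 nm excitation and 520–620 nm emission.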

[2] = Homo sapiens, NCI-H2171, 72 h, Table 2, compounds of FIG. 1

T1 sequence (P01106 whole entry): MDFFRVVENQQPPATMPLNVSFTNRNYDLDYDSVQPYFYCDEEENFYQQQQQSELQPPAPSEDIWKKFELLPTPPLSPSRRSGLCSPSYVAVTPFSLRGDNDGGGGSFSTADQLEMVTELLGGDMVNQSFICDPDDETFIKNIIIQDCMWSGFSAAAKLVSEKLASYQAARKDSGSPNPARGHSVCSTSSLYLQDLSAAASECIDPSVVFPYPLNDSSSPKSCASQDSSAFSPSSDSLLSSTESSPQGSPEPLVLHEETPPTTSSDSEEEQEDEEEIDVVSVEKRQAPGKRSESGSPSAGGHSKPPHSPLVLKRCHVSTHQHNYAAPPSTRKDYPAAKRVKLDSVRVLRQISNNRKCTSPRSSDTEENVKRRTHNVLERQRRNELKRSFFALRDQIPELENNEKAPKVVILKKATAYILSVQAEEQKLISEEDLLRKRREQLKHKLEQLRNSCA

Compound	IC50 ([1]; Table 2, compounds of FIG. 1)	IC50 (c-Myc/Max/Ebox DNA; Table 2, compounds of FIG. 1)	IC50 [1, 2]	IC50 ([1]; Homo sapiens, NCI-H2171, 72 h, Table 3, compounds of FIG. 2)	IC50 (c-Myc/Max/Ebox DNA; Table 3, compounds of FIG. 2)
COCCNCCC(=O)Nc1sc2c(c1-c1nc3cc(F)ccc3s1)CC(C)NC2C (single isomer, unassigned) [Compound 547, N-(3-(5-Fluorobenzo[d]thiazol-2-yl)-5,7-dimethyl-4,5,6,7-tetrahydrothieno[2,3-c]pyridin-2-yl)-3-((2-methoxyethyl)amino)propanamide]	< 300 nM	1000 to 10000 nM	–	–	–
CC(C)(C)NCCC(=O)Nc1sc2c(c1-c1nc3ccccc3s1)CCNC2 [Compound 131, N-(3-(benzo[d]thiazol-2-yl)-4,5,6,7-tetrahydrothieno[2,3-c]pyridin-2-yl)-3-(tert-butylamino)propanamide]	–	< 300 nM	300 to 1000 nM	–	–
COCCNCCC(=O)Nc1sc2c(c1-c1nc3c(Br)cccc3s1)CCNC2 [compound 559]	–	< 300 nM	< 300 nM	–	–
COCCNCCC(=O)Nc1sc2c(c1-c1nc3cc(F)ccc3s1)CC(C)NC2C (single isomer, unassigned) [Compound 544, N-(3-(5-Fluorobenzo[d]thiazol-2-yl)-5,7-dimethyl-4,5,6,7-tetrahydrothieno[2,3-c]pyridin-2-yl)-3-((2-methoxyethyl)amino)propanamide]	–	< 300 nM	< 300 nM	–	–
COCCNCCC(=O)Nc1sc2c(c1-c1nc3cc(F)ccc3s1)CCN[C@@H]2C [Compound 557]	–	< 300 nM	< 300 nM	–	–
COCCNCCC(=O)Nc1sc2c(c1-c1nc3cc(-c4cccnc4)ccc3s1)CC(C)NC2C (single isomer, unassigned) [Compound 525, N-(5,7-Dimethyl-3-(5-(pyridin-3-yl)benzo[d]thiazol-2-yl)-4,5,6,7-tetrahydrothieno[2,3-c]pyridin-2-yl)-3-((2-methoxyethyl)amino)propanamide]	< 300 nM	< 300 nM	–	–	–
COCCNCCC(=O)Nc1sc2c(c1-c1nc3ccc(-c4cccnc4)cc3s1)CC(C)NC2C (single isomer, unassigned) [Compound 520, N-(5,7-Dimethyl-3-(6-(pyridin-3-yl)benzo[d]thiazol-2-yl)-4,5,6,7-tetrahydrothieno[2,3-c]pyridin-2-yl)-3-((2-methoxyethyl)amino)propanamide]	300 to 1000 nM	1000 to 10000 nM	–	–	–
Cc1cn(-c2ccc3nc(-c4c(NC(=O)CCNC(C)C)sc5c4CCNC5)sc3c2)cn1 [compound 186]	–	< 300 nM	< 300 nM	–	–
COCCN(CCOC)CCC(=O)Nc1sc2c(c1-c1nc3ccccc3s1)CCNC2 [Compound 309, N-(3-(benzo[d]thiazol-2-yl)-4,5,6,7-tetrahydrothieno[2,3-c]pyridin-2-yl)-3-(bis(2-methoxyethyl)amino)propanamide]	–	> 10000 nM	< 300 nM	–	–
CCC(C)NCCC(=O)Nc1sc2c(c1-c1nc3cc(F)ccc3s1)CCNC2 (centres unmarked) [Compound 123, 3-(sec-butylamino)-N-(3-(5-fluorobenzo[d]thiazol-2-yl)-4,5,6,7-tetrahydrothieno[2,3-c]pyridin-2-yl) propanamide]	–	< 300 nM	< 300 nM	–	–
COCCNCCC(=O)Nc1sc2c(c1-c1nc3cc(-c4ccncc4)ccc3s1)CCNC2 [compound 308]	–	< 300 nM	< 300 nM	–	–
COCCNCCC(=O)Nc1sc2c(c1-c1nc3ccccc3s1)CC(C)NC2C (centres unmarked) [Compound 315, N-(3-(Benzo[d]thiazol-2-yl)-5,7-dimethyl-4,5,6,7-tetrahydrothieno[2,3-c]pyridin-2-yl)-3-((2-methoxyethyl)amino)propanamide]	< 300 nM	300 to 1000 nM	–	–	–
COCCNCCC(=O)Nc1sc2c(c1-c1nc3c(NC4COC4)cccc3s1)CCNC2 [compound 600]	–	< 300 nM	< 300 nM	–	–
CC[C@H](C)NCCC(=O)Nc1sc2c(c1-c1nc3cc(-c4ccncc4)ccc3s1)CCN(C1CC1)C2 [Compound 618, (S)-3-(sec-butylamino)-N-(6-cyclopropyl-3-(5-(pyridin-4-yl)benzo[d]thiazol-2-yl)-4,5,6,7-tetrahydrothieno[2,3-c]pyridin-2-yl)propanamide]	–	< 300 nM	< 300 nM	–	–
COCCNCCC(=O)Nc1sc2c(c1-c1nc3ccc(-c4ccc(C#N)nc4)cc3s1)CCNC2 [compound 391]	–	< 300 nM	< 300 nM	–	–
CC[C@@H](C)NCCC(=O)Nc1sc2c(c1-c1nc3cc(C(F)(F)F)ccc3s1)CCN(C(C)C)C2 [Compound 574, (R)-3-(sec-butylamino)-N-(6-isopropyl-3-(5-(trifluoromethyl)benzo[d]thiazol-2-yl)-4,5,6,7-tetrahydrothieno[2,3-c]pyridin-2-yl)propanamide]	–	< 300 nM	< 300 nM	–	–
COCCNCCC(=O)Nc1sc2c(c1-c1nc3ccc(-c4cn[nH]c4)cc3s1)CCNC2 [compound 339]	–	< 300 nM	< 300 nM	–	–

Compound	IC50 ([1]; Table 2, compounds of FIG. 1)	IC50 (c-Myc/Max/Ebox DNA; Table 2, compounds of FIG. 1)	IC50 [1, 2]	IC50 ([1]; Homo sapiens, NCI-H2171, 72 h, Table 3, compounds of FIG. 2)	IC50 (c-Myc/Max/Ebox DNA; Table 3, compounds of FIG. 2)
COCCNCCC(=O)Nc1sc2c(c1-c1nc3cc(-c4cnc(N)nc4)ccc3s1)CCNC2 [compound 345]	–	< 300 nM	< 300 nM	–	–
CC(C)NCCC(=O)Nc1sc2c(c1-c1nc3ccc(-c4cccnc4)cc3s1)CCNC2 [compound 193]	–	< 300 nM	< 300 nM	–	–
COCCNCCC(=O)Nc1sc2c(c1-c1nc3cc(-c4cnn(C)c4)ccc3s1)CC(C)NC2C (single isomer, unassigned) [Compound 565, N-(5,7-Dimethyl-3-(5-(1-methyl-1H-pyrazol-4-yl)benzo[d]thiazol-2-yl)-4,5,6,7-tetrahydrothieno[2,3-c]pyridin-2-yl)-3-((2-methoxyethyl)amino)propanamide]	< 300 nM	< 300 nM	–	–	–
CC(C)NCCC(=O)Nc1sc2c(c1-c1nc3c(-c4cccnc4)cccc3s1)CCNC2 [compound 534]	–	< 300 nM	< 300 nM	–	–
COCCNCCC(=O)Nc1sc2c(c1-c1nc3cc(C(F)(F)F)ccc3s1)CCN(C(C)C)C2 [Compound 575, N-(6-Isopropyl-3-(5-(trifluoromethyl)benzo[d]thiazol-2-yl)-4,5,6,7-tetrahydrothieno[2,3-c]pyridin-2-yl)-3-((2-methoxyethyl)amino) propanamide]	–	< 300 nM	< 300 nM	–	–
CC(=O)N(C)c1sc2c(c1-c1nc3ccccc3s1)CCNC2 [Compound 232, N-(3-(benzo[d]thiazol-2-yl)-4,5,6,7-tetrahydrothieno[2,3-c]pyridin-2-yl)-N-methylacetamide]	–	–	–	> 10000 nM	> 10000 nM
CC[C@H](C)NCCC(=O)Nc1sc2c(c1-c1nc3ccccc3s1)CC(C)NC2C (single isomer, unassigned) [Compound 620]	1000 to 10000 nM	1000 to 10000 nM	–	–	–
CCC(C)NCCC(=O)Nc1sc2c(c1-c1nc3cc4c(cc3s1)OCO4)CCN(C(C)C)C2 (centres unmarked) [Compound 563, N-(3-([1,3]Dioxolo[4′,5′:4,5]benzo[1,2-d]thiazol-6-yl)-6-isopropyl-4,5,6,7-tetrahydrothieno[2,3-c]pyridin-2-yl)-3-(sec-butylamino)propanamide]	–	< 300 nM	< 300 nM	–	–
COCCNCCC(=O)Nc1sc2c(c1-c1nc3cc4c(cc3s1)OCO4)CCNC2 [Compound 556, N-(3-([1,3]Dioxolo[4′,5′:4,5]benzo[1,2-d]thiazol-6-yl)-4,5,6,7-tetrahydrothieno[2,3-c]pyridin-2-yl)-3-((2-methoxyethyl)amino)propanamide]	–	< 300 nM	< 300 nM	–	–
COCCNCCC(=O)Nc1sc2c(c1-c1nc3cc(-c4cnn(C(C)C)c4)ccc3s1)CCNC2 [compound 465]	–	< 300 nM	< 300 nM	–	–
CCN(CC)c1ccc(-c2ccc3sc(-c4c(NC(=O)CCNCCOC)sc5c4CCNC5)nc3c2)cc1 [compound 365]	–	< 300 nM	< 300 nM	–	–
COCCNCCC(=O)Nc1sc2c(c1-c1nc3cc(-c4ccnc(N)c4)ccc3s1)CCNC2 [compound 433]	–	< 300 nM	< 300 nM	–	–
CCC(C)NCCC(=O)Nc1sc2c(c1-c1nc3cc(C)c(C)cc3s1)CCNC2 (centres unmarked) [Compound 576, 3-(sec-Butylamino)-N-(3-(5,6-dimethylbenzo[d]thiazol-2-yl)-4,5,6,7-tetrahydrothieno[2,3-c]pyridin-2-yl)propanamide]	–	< 300 nM	< 300 nM	–	–
CCc1cccc2nc(-c3c(NC(=O)CCNCCOC)sc4c3CCNC4)sc12 [compound 599]	–	< 300 nM	< 300 nM	–	–
3-(Azetidin-1-yl)-N-(3-(benzo[d]thiazol-2-yl)-6-isopropyl-4,5,6,7-tetrahydrothieno[2,3-c]pyridin-2-yl)propanamide [Compound 541]	1000 to 10000 nM	300 to 1000 nM	–	–	–
CC[C@H](C)NCCC(=O)Nc1sc2c(c1-c1nc3cc(C(F)(F)F)ccc3s1)CCNC2 [Compound 152, (S)-3-(sec-butylamino)-N-(3-(5-(trifluoromethyl)benzo[d]thiazol-2-yl)-4,5,6,7-tetrahydrothieno[2,3-c]pyridin-2-yl)propanamide]	–	< 300 nM	< 300 nM	–	–
COCCNCCC(=O)Nc1sc2c(c1-c1nc3cc(-c4cnc(OC)nc4)ccc3s1)CCNC2 [compound 404]	–	< 300 nM	< 300 nM	–	–

From patent US10787444B2, “Compounds for the modulation of myc activity” (Syros Pharmaceuticals, Inc., priority 2015, dated 2020)
